PMC6008465 (British Journal of Cancer, 2018)
Marks after values point to notes of the source that are not given here.

Experiments:
[1] = Part B pharmacokinetics by BRAF genotype; assay type: in vivo, human; conditions: Part B dose-expansion, by dose and genotype
Experimental: In Part A, blood was collected on Cycle 1, Days 1 and 15 at specified intervals prior to, during, and postinfusion (5 min–8 h), and on Days 2, 3, 16, and 17 (24 and 48 h postinfusion). Urine was collected on Cycle 1, Day 1 preinfusion, at 0–8 h, and 8–24 h. In Part B, blood was collected on Cycle 1, Day 1, prior to, during, and at 1–24 h postinfusion. Pharmacokinetic parameters were calculated using noncompartmental analysis.

[2] = test system: BRAF-mutated human cancer xenograft models; conditions: Q4D x3 schedule; cited from earlier work
[3] = test system: IL-8; design: IC50 for inhibition of spontaneous secretion of IL-8: unit not given here; conditions: quoted in discussion, no reference given, cited from earlier work
[4] = test system: advanced solid tumours; assay: Part A tumour response (RECIST 1.0); assay type: in vivo, human
Experimental: The primary objectives of this phase 1 study were to evaluate the safety, tolerability, and MTD of once-weekly (Schedule I) and twice-weekly (Schedule II) dosing. […] Toxicity was managed by dose interruption, reduction, and/or discontinuation. Only Cycle 1 adverse events (AEs) were evaluable as DLTs. […] All ongoing patients could continue at 320 mg/m^2, regardless of initial starting dose.
Efficacy was assessed by tumour response determined by investigator review of computed tomography/magnetic resonance imaging scans using Response Evaluation Criteria in Solid tumours version 1.0 (RECIST).[17]

[5] = test system: IL-6; conditions: quoted in discussion, no reference given, cited from earlier work

## CCNc1cc(O)c2c(c1)/C=C/C[C@H](O)[C@H](O)C(=O)/C=C\[C@@H](C)[C@H](C)OC2=O [E6201, (3S,4R,5Z,8S,9S,11E)-14-(ethylamino)-8,9,16-trihydroxy-3,4-dimethyl-3,4,9,19-tetrahydro-1H-2-benzoxacyclotetradecine-1,7 (8H)-dione]
[1]
  Effect of BRAF mutation on PK properties: no effect
[2]
  Duration of significant and prolonged anti-tumour activity from first dose: > 20 days
[3]
  IC50 for inhibition of spontaneous secretion of IL-8: 8.19
[3]; read-out: IC50 for inhibition of spontaneous secretion of IL-8
  IC50: 21.8 nM
[4]; 20 mg/m^2 (n=4)
  Best overall response: Complete response (CR): 0 n (%)
  Best overall response: Not evaluable (NE): 0 n (%)
  Best overall response: Partial response (PR): 0 n (%)
  Best overall response: Progressive disease (PD): 3 (75.0) n (%)
  Disease control rate (CR+PR+SD): 1 (25.0) n (%)
  Overall response rate (CR+PR): 0 n (%)
[4]; 40 mg/m^2 (n=3)
  Best overall response: Complete response (CR): 0 n (%)
  Best overall response: Not evaluable (NE): 0 n (%)
  Best overall response: Partial response (PR): 0 n (%)
  Best overall response: Progressive disease (PD): 1 (33.3) n (%)
  Disease control rate (CR+PR+SD): 2 (66.7) n (%)
  Overall response rate (CR+PR): 0 n (%)
[4]; 40 mg/m^2, patient with biliary duct cancer (BRAF-WT)
  Duration of SD: 4 cycles
[4]; 40 mg/m^2, patient with colon cancer (BRAF-WT)
  Duration of SD: 6 cycles
[4]; 80 mg/m^2 (n=3)
  Best overall response: Complete response (CR): 0 n (%)
  Best overall response: Not evaluable (NE): 0 n (%)
  Best overall response: Partial response (PR): 0 n (%)
  Best overall response: Progressive disease (PD): 2 (66.7) n (%)
  Disease control rate (CR+PR+SD): 1 (33.3) n (%)
  Overall response rate (CR+PR): 0 n (%)
[4]; 80 mg/m^2, patient with BRAF-WT uveal melanoma
  Duration of SD: 15 cycles
[4]; 160 mg/m^2 (n=3)
  Best overall response: Complete response (CR): 0 n (%)
  Best overall response: Not evaluable (NE): 1 (33.3) n (%)
  Best overall response: Partial response (PR): 0 n (%)
  Best overall response: Progressive disease (PD): 2 (66.7) n (%)
  Disease control rate (CR+PR+SD): 0 n (%)
  Overall response rate (CR+PR): 0 n (%)
[4]; 320 mg/m^2 (n=7)
  Best overall response: Complete response (CR): 0 n (%)
  Best overall response: Not evaluable (NE): 1 (14.3) n (%)
  Best overall response: Partial response (PR): 0 n (%)
  Best overall response: Progressive disease (PD): 4 (57.1) n (%)
  Disease control rate (CR+PR+SD): 1 (14.3) n (%)
  Overall response rate (CR+PR): 0 n (%)
[4]; 400 mg/m^2 (n=1)
  Best overall response: Complete response (CR): 0 n (%)
  Best overall response: Not evaluable (NE): 0 n (%)
  Best overall response: Partial response (PR): 0 n (%)
  Best overall response: Progressive disease (PD): 0 n (%)
  Disease control rate (CR+PR+SD): 1 (100) n (%)
  Overall response rate (CR+PR): 0 n (%)
[4]; 400 mg/m^2, patient with gastric carcinoid (BRAF status unknown)
  Duration of SD: 4 cycles
[4]; 480 mg/m^2 (n=4)
  Best overall response: Complete response (CR): 0 n (%)
  Best overall response: Not evaluable (NE): 0 n (%)
  Best overall response: Partial response (PR): 1 (25.0)^a n (%)
  Best overall response: Progressive disease (PD): 0 n (%)
  Disease control rate (CR+PR+SD): 3 (75.0) n (%)
  Overall response rate (CR+PR): 1 (25.0) n (%)
[4]; 480 mg/m^2, patient with papillary thyroid cancer (BRAF-WT)
  Duration of SD: 4 cycles
[4]; BRAF-mutated papillary thyroid cancer patient, 480 mg/m^2
  Duration of partial response: 4 cycles
[4]; Total (N=25)
  Best overall response: Complete response (CR): 0 n (%)
  Best overall response: Not evaluable (NE): 2 (8.0) n (%)
  Best overall response: Partial response (PR): 1 (4.0) n (%)
  Best overall response: Progressive disease (PD): 12 (48.0) n (%)
  Disease control rate (CR+PR+SD): 9 (36.0) n (%)
  Overall response rate (CR+PR): 1 (4.0) n (%)
[4]; V600E BRAF-mutated papillary thyroid cancer, 480 mg/m^2 qw
  Number of partial responses (PR): One
[4]; five patients
  Patients with SD for ≥4 cycles (3.7 months): 20.0%
[5]
  IC50 for inhibition of spontaneous secretion of IL-6: 4.09 ng/mL
[5]; read-out: IC50 for inhibition of spontaneous secretion of IL-6
  IC50: 10.5 nM
